Measured values from patent publication US20080280877A1, “Azetidines” (Pfizer Inc, priority 2007, published 2008).

Each compound was assayed against T1, recombinant human EP-2 receptor (Homo sapiens, UniProt P43116) (assay: in vitro antagonist potency against recombinant human EP-2 receptor in CHO cells (cAMP, Protocol 1)). Conditions: functional Ki by Cheng-Prusoff from IC50; CHO cells stimulated with PGE2 (5 nM); cAMP readout; read-out: EP2 Ki.
T1 construct: cell line stably transfected with full length cDNA encoding human Prostaglandin E2 was established; expressed in transfected cells; host or cells: CHO (Chinese hamster ovary) cells, stably transfected
T1 sequence (P43116 whole entry): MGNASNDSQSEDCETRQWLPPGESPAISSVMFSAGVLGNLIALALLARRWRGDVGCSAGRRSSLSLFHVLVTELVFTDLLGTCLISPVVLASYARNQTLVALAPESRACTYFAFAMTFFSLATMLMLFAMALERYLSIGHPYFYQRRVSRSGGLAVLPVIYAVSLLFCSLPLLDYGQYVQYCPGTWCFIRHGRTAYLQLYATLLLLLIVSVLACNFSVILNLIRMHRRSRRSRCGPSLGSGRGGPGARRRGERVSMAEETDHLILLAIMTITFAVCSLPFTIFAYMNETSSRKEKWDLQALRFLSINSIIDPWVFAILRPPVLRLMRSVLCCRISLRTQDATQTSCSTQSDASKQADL
Assay type: cell-based
From the text: 1.0 Measurement of in vitro Antagonist Potency (IC50) of Compounds Against Recombinant Human Prostaglandin E2 Receptor in CHO Cells
The prostaglandin E2 (EP-2) receptor is Gs coupled and agonism of the receptor by PGE2 results in activation of intracellular adenylate cyclase enzymes that synthesise the second messenger signalling molecule, adenosine 3′,5′-cyclic monophosphate (cAMP). […] Decreases in cAMP levels following treatment of stimulated recombinant EP-2 cells with potential antagonist compounds were measured and potency (IC50) calculated as follows. A Chinese hamster ovary (CHO) cell line stably transfected with full length cDNA encoding human Prostaglandin E2 was established using standard molecular biology methods. Test compounds were dissolved in dimethyl sulphoxide (DMSO) at 4 mM. 11 point half log unit increment dilution series of test compound were prepared in DMSO then diluted 1 in 40 in a buffer comprised of phosphate buffered saline (PBS) and 0.05% pluronic F-127 surfactant. Freshly cultured cells at 80-90% confluence were harvested and re-suspended in 90% growth media/10% DMSO. The cells were frozen using a planar freezer and stored in frozen aliquots in cryovials in liquid nitrogen until the day of the experiment. A vial of cells was defrosted in a 37° C. water bath for 2 min, then transferred to 10 ml of Dulbecco's Modified Eagle's Medium (DMEM). The cells were then centrifuged for 5 min at 1000 g and the pellet re-suspended at 1,000,000 cells/ml in DMEM. 5,000 cells (5 ul) were added to 5 ul of the compound dilution series in a 384 well assay plate and pre-incubated for 30 min at 37° C. 5 ul of agonist (15 nM PGE2 in PBS to give 5 nM FAC) was added and plates further incubated for 90 min at 37° C. The relative cAMP concentration in each well was then measured using a ? -galactosidase enzyme fragment complementation method purchased in kit form as the Discoverx cAMP II kit from GE Healthcare, UK. […] Sigmoidal curves were fitted to plots of log10 inhibitor concentration vs. percent effect. IC50 estimates were determined as the concentration of test compound giving an effect half way between the bottom and top asymptotes of the sigmoidal dose response curve. Each experiment included an IC50 determination for the literature compound as a standard to track assay consistency and allow fair comparison between values obtained in different experiments. The EC50 of PGE2 is used in combination with the ligand concentration in the assay to determine Ki values for antagonist dose responses using the Cheng-Prusoff equation. Consequently an agonist dose response curve is carried out for each experiment using the same incubation as the antagonist plate.
In the case of `O=C(c1ccc(F)cc1)N1CC(COc2ccc3nc(-c4ccccn4)sc3c2)(C(=O)O)C1` [Example 7], the Ki is reported as 1.4 nM.
Work on `O=C(c1ccc(F)cc1)N1CC(COc2ccc(-c3ccccn3)nc2)(C(=O)O)C1` [Example 27] yielded a Ki of 146 nM.
Work on `O=C(c1ccc(F)cc1)N1CC(COc2ccc(-c3ccccc3Cl)cc2)(C(=O)O)C1` [Example 39, 3-{[(2′-Chlorobiphenyl-4-yl)oxy]methyl}-1-(4-fluorobenzoyl)azetidine-3-carboxylic acid] yielded a Ki of 22.5 nM.
`O=C(c1ccc(F)cc1)N1CC(COc2ccc(-c3cc4ccccc4nn3)cc2)(C(=O)O)C1` [Example 8] was tested, and the Ki was 2.3 nM.
Compound `O=C(c1ccc(F)cc1)N1CC(COc2ccc(-c3ccc(F)cc3F)cc2)(C(=O)O)C1` [Example 44] has a Ki of 5.6 nM.
Compound `CCCOc1ccc(OCC2(C(=O)O)CN(C(=O)Nc3cccc(Cl)c3Cl)C2)cc1` [Example 67, 1-{[(2,3-Dichlorophenyl)amino]carbonyl}-3-[(4-propoxyphenoxy)methyl]azetidine-3-carboxylic acid] has a Ki of 110 nM.
`O=C(c1ccc(F)cc1)N1CC(COc2ccc(Br)cc2)(C(=O)O)C1` [Example 53, 3-[(4-Bromophenoxy)methyl]-1-(4-fluorobenzoyl)azetidine-3-carboxylic acid] showed a Ki of 615 nM.
For `COc1cccc(C(=O)N2CC(COc3ccc4nc(C)ccc4c3)(C(=O)O)C2)c1` [Example 31], the Ki was 233 nM.
`O=C(c1ccccc1)N1CC(COc2ccc(-c3ccccc3)cc2)(C(=O)O)C1` [Example 21] gave a Ki of 27.7 nM.
`O=C(c1ccc(F)cc1)N1CC(COc2ccc(-c3ccccn3)cc2)(C(=O)O)C1` [Example 22] showed a Ki of 53.9 nM.
`Cc1nc2ccc(OCC3(C(=O)O)CN(C(=O)c4ccc(F)cc4)C3)cc2s1` [Example 30] gave a Ki of 206 nM.
`CCCc1ccc(OCC2(C(=O)O)CN(C(=O)Nc3ccccc3CC)C2)cc1` [Example 69] showed a Ki of 560 nM.
`COc1ccc(-c2cnc(OCC3(C(=O)O)CN(C(=O)c4ccccc4)C3)nc2)cc1` [Example 46] gave a Ki of 37.2 nM.
`CSc1ccc(NC(=O)N2CC(COc3ccc(C)c4c3CCC4)(C(=O)O)C2)cc1` [Example 72] showed a Ki of 748 nM.
With `O=C(c1ccc(Cl)cc1)N1CC(COc2ccc(-c3ccc(Cl)cc3)cc2)(C(=O)O)C1` [Example 4] the Ki was 1.6 nM.
`COc1ccc2cc(OCC3(C(=O)O)CN(C(=O)c4ccc(Cl)cc4)C3)ccc2c1` [Example 13] gave a Ki of 6 nM.
`O=C(c1ccc(Cl)cc1)N1CC(COc2ccc(-c3ccc(F)cc3)cc2)(C(=O)O)C1` [Example 2] gave a Ki of 1.1 nM.
`COc1ccc(OC(=O)N2CC(COc3ccc4cc(OC)ccc4c3)(C(=O)O)C2)cc1` [Example 62] gave a Ki of 12.4 nM.
Compound `CCCOc1ccc(OCC2(C(=O)O)CN(C(=O)Nc3cc(C)cc(C)c3)C2)cc1` [Example 71] has a Ki of 587 nM.
Work on `CCCOc1ccc(OCC2(C(=O)O)CN(C(=O)c3ccc(Cl)cc3)C2)cc1` [Example 38] yielded a Ki of 31.4 nM.
With `Cc1ccc2cc(OCC3(C(=O)O)CN(C(=O)c4ccc(Cl)cc4)C3)ccc2n1` [Example 23] the Ki was 101 nM.
With `N#Cc1ccc(-c2ccc(OCC3(C(=O)O)CN(C(=O)c4ccc(F)cc4)C3)cc2)cc1` [Example 6] the Ki was 2.3 nM.
With `O=C(c1ccccc1)N1CC(COc2ccc3ccccc3c2)(C(=O)O)C1` [Example 28] the Ki was 175 nM.
Compound `O=C(C1CCC(F)(F)CC1)N1CC(COc2ccc(-c3ccc(Cl)cc3)cc2)(C(=O)O)C1` [Example 54, 3-{[(4′-Chlorobiphenyl-4-yl)oxy]methyl}-1-[(4,4-difluorocyclohexyl)carbonyl]azetidine-3-carboxylic acid] has a Ki of 10.9 nM.
`Cc1ccc2cc(OCC3(C(=O)O)CN(C(=O)c4cccc(Cl)c4)C3)ccc2n1` [Example 26] showed a Ki of 125 nM.
In the case of `Cc1ccc2cc(OCC3(C(=O)O)CN(C(=O)c4ccccc4)C3)ccc2n1` [Example 32], the Ki is reported as 271 nM.
Work on `CSc1ccc(NC(=O)N2CC(COc3cccc(C)c3C)(C(=O)O)C2)cc1` [Example 68, 3-[(2,3-Dimethylphenoxy)methyl]-1-({[4-(methylthio)phenyl]amino}carbonyl)azetidine-3-carboxylic acid] yielded a Ki of 603 nM.
Work on `Cc1ccc(-c2ccc(OCC3(C(=O)O)CN(C(=O)c4ccc(F)cc4)C3)cc2)cc1` [Example 15] yielded a Ki of 7 nM.
For `COc1ccc2cc(OCC3(C(=O)O)CN(C(=O)Nc4ccc(F)cc4)C3)ccc2c1` [Example 65], the Ki was 55.6 nM.
With `O=C(c1ccccc1)N1CC(COc2cnc(-c3ccccc3)cn2)(C(=O)O)C1` [Example 45, 1-Benzoyl-3-{[(5-phenylpyrazin-2-yl)oxy]methyl}azetidine-3-carboxylic acid] the Ki was 56.7 nM.
In the case of `COc1ccc2cc(OCC3(C(=O)NS(C)(=O)=O)CN(C(=O)c4ccc(F)cc4)C3)ccc2c1` [Example 50, 1-(4-Fluorobenzoyl)-3-{[(6-methoxy-2-naphthyl)oxy]methyl}-N-(methylsulfonyl)azetidine-3-carboxamide], the Ki is reported as 776 nM.
`COc1ccc2cc(OCC3(C(=O)O)CN(C(=O)Nc4cccc(F)c4)C3)ccc2c1` [Example 63, 1-{[(3-Fluorophenyl)amino]carbonyl}-3-{[(6-methoxy-2-naphthyl)oxy]methyl}azetidine-3-carboxylic acid] gave a Ki of 50.6 nM.
Work on `CCOc1ccccc1C(=O)N1CC(COc2ccc3cc(OC)ccc3c2)(C(=O)O)C1` [Example 18] yielded a Ki of 19.7 nM.
Work on `O=C(c1ccc(F)cc1)N1CC(COc2ccc(-c3cccc(Cl)c3)cc2)(C(=O)O)C1` [Example 43] yielded a Ki of 5.2 nM.
Work on `O=C(c1ccc(F)cc1)N1CC(COc2ccc(-c3ccc(Cl)cc3)cc2)(C(=O)O)C1` [Example 10] yielded a Ki of 3.1 nM.
`CCOc1ccc(C(=O)N2CC(COc3ccc4nc(C)ccc4c3)(C(=O)O)C2)cc1` [Example 34] gave a Ki of 338 nM.
`COc1ccc2cc(OCC3(C(=O)O)CN(C(=O)c4ccccc4)C3)ccc2c1` [Example 20] showed a Ki of 24.4 nM.
Compound `O=C(c1ccc(F)cc1)N1CC(COc2ccc(-c3ccc(Cl)cn3)cc2)(C(=O)O)C1` [Example 12] has a Ki of 3.3 nM.
Work on `COc1ccc2cc(OCC3(C(=O)O)CN(C(=O)Nc4cccc(Cl)c4)C3)ccc2c1` [Example 64] yielded a Ki of 7.5 nM.
With `O=C(c1ccc(Cl)cc1)N1CC(COc2ccc(-c3ccccc3)nn2)(C(=O)O)C1` [Example 47] the Ki was 69.3 nM.
`O=C(c1ccc(Cl)cc1)N1CC(COc2cccc(-c3ccccc3)c2)(C(=O)O)C1` [Example 35] gave a Ki of 525 nM.
`COc1ccc2cc(OCC3(C#N)CN(C(=O)c4ccc(F)cc4)C3)ccc2c1` [Example 52, 1-(4-Fluorobenzoyl)-3-{[(6-methoxy-2-naphthyl)oxy]methyl}azetidine-3-carbonitrile] showed a Ki of 182 nM.
`COc1ccc2cc(OCC3(C(=O)O)CN(C(=O)Nc4ccccc4F)C3)ccc2c1` [Example 66] gave a Ki of 102 nM.
For `O=C(c1ccc(Cl)cc1)N1CC(COc2ccc(-c3ccc(Cl)cn3)cc2)(C(=O)O)C1` [Example 5], the Ki was 1.9 nM.
In the case of `Cc1ccc2cc(OCC3(C(=O)O)CN(C(=O)c4ccc(F)cc4)C3)ccc2n1` [Example 25], the Ki is reported as 122 nM.
Work on `COc1ccc2nc(OCC3(C(=O)O)CN(C(=O)c4ccccc4)C3)ccc2c1` [Example 48] yielded a Ki of 79.7 nM.
Work on `COc1ccc2ccc(OCC3(C(=O)O)CN(C(=O)c4ccc(F)cc4)C3)cc2c1` [Example 29] yielded a Ki of 196 nM.
Work on `O=C(c1ccccc1)N1CC(COc2cnc(-c3ccc(Cl)cc3)cn2)(C(=O)O)C1` [Example 42] yielded a Ki of 5 nM.
`O=C(c1ccccc1)N1CC(COc2cccc(-c3ccccc3)c2)(C(=O)O)C1` [Example 36] gave a Ki of 705 nM.
Work on `N#Cc1ccc(-c2ccc(OCC3(C(=O)O)CN(C(=O)c4ccc(Cl)cc4)C3)cc2)cc1` [Example 1, 1-(4-Chlorobenzoyl)-3-{[(4′-cyanobiphenyl-4-yl)oxy]methyl}azetidine-3-carboxylic acid] yielded a Ki of 0.9 nM.
Compound `O=C(c1ccc(F)cc1)N1CC(COc2ccc(-c3ccc(F)cc3)cc2)(C(=O)O)C1` [Example 16] has a Ki of 7.5 nM.
For `Cc1cc(C)c2cc(OCC3(C(=O)O)CN(C(=O)c4ccc(F)cc4)C3)ccc2n1` [Example 24], the Ki was 103 nM.
Compound `O=C(c1ccccc1)N1CC(COc2ccc(-c3ccccc3)cn2)(C(=O)O)C1` [Example 49] has a Ki of 114 nM.
Work on `O=C(c1ccc(F)cc1)N1CC(COc2cccc(-c3ccccc3)c2)(C(=O)O)C1` [Example 37] yielded a Ki of 752 nM.
Compound `O=C(c1ccc(F)cc1)N1CC(COc2ccc(-c3ccc4ccccc4n3)cc2)(C(=O)O)C1` [Example 3] has a Ki of 0.7 nM.
Work on `O=C(c1ccc(Cl)cc1)N1CC(COc2ccc(-c3ccccc3)cc2)(C(=O)O)C1` [Example 17] yielded a Ki of 19.5 nM.
Work on `O=C(c1ccc(F)cc1)N1CC(COc2cnc3ccccc3c2)(C(=O)O)C1` [Example 33] yielded a Ki of 304 nM.
